The text below walks through data of patent publication US8293781B2, “Indole derivatives having cPLA2 inhibiting activity and applications and production methods of the same” (Daiichi Sankyo Company, Limited, priority 2007, dated 2012).

Counter-ions that a name gives are not always drawn.

The target in one test is T1, cPLA2 crudely purified from the cytoplasm fraction of U937 (Homo sapiens, UniProt P47712).
T1 construct: cPLA2 crudely purified from the cytoplasm fraction of U937; endogenous in cells; host or cells: U937 cells (cytoplasm fraction, crude purification)
T1 sequence (P47712 1-749): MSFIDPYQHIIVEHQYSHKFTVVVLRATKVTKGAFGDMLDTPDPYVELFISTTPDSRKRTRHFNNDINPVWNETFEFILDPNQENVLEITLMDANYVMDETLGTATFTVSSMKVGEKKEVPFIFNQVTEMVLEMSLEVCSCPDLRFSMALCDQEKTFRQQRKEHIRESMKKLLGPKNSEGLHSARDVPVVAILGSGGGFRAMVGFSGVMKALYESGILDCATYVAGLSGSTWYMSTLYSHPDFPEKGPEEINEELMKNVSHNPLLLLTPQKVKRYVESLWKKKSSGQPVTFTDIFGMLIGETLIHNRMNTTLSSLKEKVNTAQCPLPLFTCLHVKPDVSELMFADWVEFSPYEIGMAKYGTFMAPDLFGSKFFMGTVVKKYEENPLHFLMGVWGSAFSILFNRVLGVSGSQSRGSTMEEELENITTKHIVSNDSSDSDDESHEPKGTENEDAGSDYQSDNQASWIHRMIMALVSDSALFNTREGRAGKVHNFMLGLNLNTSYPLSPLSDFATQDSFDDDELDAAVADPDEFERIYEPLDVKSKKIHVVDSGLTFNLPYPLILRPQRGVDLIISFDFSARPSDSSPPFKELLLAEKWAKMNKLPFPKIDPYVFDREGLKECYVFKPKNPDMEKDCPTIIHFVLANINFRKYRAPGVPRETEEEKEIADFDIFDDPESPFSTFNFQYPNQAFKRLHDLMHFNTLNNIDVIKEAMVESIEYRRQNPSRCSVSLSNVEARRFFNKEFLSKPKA
Description: Measurement of cPLA2 inhibitory activity (release of [14C]-arachidonic acid from phosphatidyl choline liposome). The format is biochemical.
Details: not given
Here is the method:
The cPLA2 inhibitory activity was measured based on the method described in the document [See H. Naraba et al., J. Immunol. 160, 2974-2982 (1998)] and modified in the following way.
A DMSO solution of the present invitation compounds was diluted to 2.5 times the final concentration with the assay buffer (4 mM CaCl2, 2 mM dithiothreitol, 150 mM NaCl, 50 mM HEPES buffer solution (pH7.5)) containing 0.55 mg/ml BSA. To 20 μl of this, cPLA2 crudely purified from the cytoplasm fraction of U937 was added in an amount of 10 μl after dilution by an assay buffer solution containing 0.55 mg/ml BSA. A liposome prepared by ultrasonically treating L-α-1-palmitoyl-2-[14C]arachidonyl-phosphatidyl choline (made by PerkinElmer) and adjusted by the assay buffer solution to a concentration of phosphatidyl choline of 10 μM was added and stirred in by an amount of 20 μl and the mixture was reacted at 37° C. for 60 minutes. The [^14C]-arachidonic acid released due to the reaction was extracted based on the method described in the documents [see V. P. Dole et al., J. Biol. Chem. 235, 2595 (1960)], was added to Lumaplate® (made by PerkinElmer), dried, then measured by Topcount® (made by PerkinElmer). Except for not adding the present invention compounds, the same procedure was performed as the above to obtain the enzyme control. Except for not adding the invention compounds and not adding the enzyme, the same procedure was followed as above to obtain a negative control. The inhibiting activity was expressed as a percent (%) of the value minus the negative control with respect to the value of the enzyme control minus the negative control. From this, the 50% inhibiting concentration (IC50, μM) was calculated.
In turn, `O=C(O)CCc1ccc2c(c1)c(C(=O)c1ccccc1)cn2-c1ccccc1` [Example 4, 3-(3-benzoyl-1-phenyl-1H-indol-5-yl)propanoic acid] returned an IC50 of 146 nM. With `O=C(O)/C=C/c1ccc2c(c1)c(C(=O)c1cccc3ccccc13)cn2-c1ccccc1` [Example 50, (2E)-3-[3-(1-naphthoyl)-1-phenyl-1H-indol-5-yl]-2-propenoic acid], the IC50 was 6990 nM.

Staying with this test, now noted: cPLA2 from U937 cytoplasm fraction, [14C]arachidonyl-phosphatidyl choline liposome, 37° C., 60 minutes; read-out: cPLA2 inhibitory activity, 50% inhibiting concentration IC50.
In the case of `O=C(O)CCc1ccc2c(c1)c(CCc1ccccc1)cn2-c1ccc(OCCOCc2ccccc2)cc1` [Example 342, 3-[1-{4-[2-(benzyloxy)ethoxy]phenyl}-3-(2-phenylethyl)-1H-indol-5-yl]propanoic acid], the IC50 was 2 nM. As for `O=C(O)/C=C/c1ccc2c(c1)c(Cc1ccccc1)cn2-c1ccccc1` [Example 7, (2E)-3-(3-benzyl-1-phenyl-1H-indol-5-yl)-2-propenoic acid], the IC50 was 1040 nM. As to `CCN(CC)c1ccc(-n2cc(CCc3ccccc3)c3cc(CCC(=O)O)ccc32)cc1` [Example 88, 3-{1-[4-(diethylamino)phenyl]-3-(2-phenylethyl)-1H-indol-5-yl}propanoic acid], the IC50 turned out to be 142 nM. On the same count and under the same terms, under `O=C(O)CCc1ccc2c(c1)c(CCc1ccccn1)cn2-c1ccc(OCCO)cc1` [Example 279, 3-{1-[4-(2-hydroxyethoxy)phenyl]-3-(2-pyridin-2-ylethyl)-1H-indol-5-yl}propanoic acid hydrochloride] stands 245 nM. On the same count and under the same terms, then `O=C(O)CCc1ccc2c(c1)c(CCc1ccccc1)cn2-c1cc(F)c(OCc2ccccc2)c(F)c1` [Example 288, 3-{1-[4-(benzyloxy)-3,5-difluorophenyl]-3-(2-phenylethyl)-1H-indol-5-yl}propanoic acid 2-amino-2-(hydroxymethyl)propane-1,3-diol salt (1:1)], with 264 nM. As for `O=C(O)/C=C/c1ccc2c(c1)c(C(=O)C1(c3ccccc3)CC1)cn2-c1ccccc1` [Example 39, (2E)-3-{1-phenyl-3-[(1-phenylcyclopropyl)carbonyl]-1H-indol-5-yl}-2-propenoic acid], the IC50 amounted to 10800 nM. The same measure, in the same setting: then `CC(Cc1cn(-c2ccccc2)c2ccc(CCC(N)=O)cc12)c1ccccc1` (stereo not drawn) [Example 29, 3-[1-phenyl-3-(2-phenylpropyl)-1H-indol-5-yl]propanamide], with 21300 nM; and `O=C(O)/C=C/c1ccc2c(c1)c(CCc1ccccc1)cn2-c1ccccc1` [Example 15, (2E)-3-[1-phenyl-3-(2-phenylethyl)-1H-indol-5-yl]-2-propenoic acid], with 316 nM.

With `CC(C)(C)c1ccc(-n2cc(CCc3ccccc3)c3cc(CCC(=O)O)ccc32)cc1` [Example 103, 3-[1-(4-tert-butylphenyl)-3-(2-phenylethyl)-1H-indol-5-yl]propanoic acid 2-amino-2-(hydroxymethyl)propane-1,3-diol salt (1:1)], the IC50 amounted to 419 nM. On the same count and under the same terms, then `O=C(O)CCc1ccc2c(c1)c(CCc1ccccc1)cn2-c1ccc(CN2CCOCC2)cc1` [Example 308, 3-{1-[4-(morpholin-4-ylmethyl)phenyl]-3-(2-phenylethyl)-1H-indol-5-yl}propanoic acid], with 149 nM. Turning to `CN(C)S(=O)(=O)c1cccc(-n2cc(CCc3ccccc3)c3cc(CCC(=O)O)ccc32)c1` [Example 322, 3-[1-{3-[(dimethylamino)sulfonyl]phenyl}-3-(2-phenylethyl)-1H-indol-5-yl]propanoic acid], the IC50 was 1910 nM. Consider `O=C(O)CCc1ccc2c(c1)c(CCc1ccccc1)cn2-c1ccc(OCCO)cc1` [Example 228, 3-{1-[4-(2-hydroxyethoxy)phenyl]-3-(2-phenylethyl)-1H-indol-5-yl}propanoic acid], for which the IC50 was 4 nM.

Regarding `COc1ccc(CCc2cn(-c3ccccc3)c3ccc(CCC(=O)O)cc23)cc1OC` [Example 70, 3-{3-[2-(3,4-dimethoxyphenyl)ethyl]-1-phenyl-1H-indol-5-yl}propanoic acid 2-amino-2-(hydroxymethyl)propane-1,3-diol salt (1:1)], the IC50 is 1360 nM. Consider `N#Cc1cccc(-n2cc(CCc3ccccc3)c3cc(CCC(=O)O)ccc32)c1` [Example 173, 3-[1-(3-cyanophenyl)-3-(2-phenylethyl)-1H-indol-5-yl]propanoic acid], for which the IC50 was found to be 259 nM. On to `O=C(O)CCc1ccc2c(c1)c(CCc1ccccc1)cn2-c1ccc(Cc2ccncc2)cc1` [Example 237, 3-{3-(2-phenylethyl)-1-[4-(pyridin-4-ylmethyl)phenyl]-1H-indol-5-yl}propanoic acid hydrochloride], for which the IC50 amounted to 193 nM. Consider `O=C(O)CCc1ccc2c(c1)c(CCc1ccccc1)cn2-c1cccc(F)c1` [Example 183, 3-[1-(3-fluorophenyl)-3-(2-phenylethyl)-1H-indol-5-yl]propanoic acid], for which the IC50 was determined as 70 nM. The same measure, in the same setting: then `COc1ccc(CCc2cn(-c3ccccc3)c3ccc(CCC(=O)O)cc23)cc1` [Example 66, 3-{3-[2-(4-methoxyphenyl)ethyl]-1-phenyl-1H-indol-5-yl}propanoic acid 2-amino-2-(hydroxymethyl)propane-1,3-diol salt (1:1)], with 718 nM; and `O=C(O)CCc1ccc2c(c1)c(CCc1ccccc1)cn2-c1ccc(OCC2CCCCO2)cc1` (stereo not drawn) [Example 243, 3-{3-(2-phenylethyl)-1-[4-(tetrahydro-2H-pyran-2-ylmethoxy)phenyl]-1H-indol-5-yl}propanoic acid 2-amino-2-(hydroxymethyl)propane-1,3-diol salt (1:1)], with 4 nM. Take `Cc1cccc(-n2cc(CCc3ccccc3)c3cc(CCC(=O)O)ccc32)c1` [Example 97, 3-[1-(3-methylphenyl)-3-(2-phenylethyl)-1H-indol-5-yl]propanoic acid 2-amino-2-(hydroxymethyl)propane-1,3-diol salt (1:1)]: the IC50 stood at 99 nM.

For the compound `O=C(O)CCc1ccc2c(c1)c(CCc1ccccc1)cn2-c1ccc(OCc2ccccn2)cc1` [Example 245, 3-{3-(2-phenylethyl)-1-[4-(pyridin-2-ylmethoxy)phenyl]-1H-indol-5-yl}propanoic acid], the IC50 is 10 nM. On to `CN(C)C(=O)c1cccc(-n2cc(CCc3ccccc3)c3cc(CCC(=O)O)ccc32)c1` [Example 314, 3-{1-[3-(dimethylcarbamoyl)phenyl]-3-(2-phenylethyl)-1H-indol-5-yl}propanoic acid], for which the IC50 was > 3000 nM. `O=C(O)CCc1ccc2c(c1)c(CCc1ccccc1)cn2-c1ccc(OCCc2ccncc2)cc1` [Example 255, 3-{3-(2-phenylethyl)-1-[4-(2-pyridin-4-ylethoxy)phenyl]-1H-indol-5-yl}propanoic acid]: the IC50 stood at 12 nM. In the case of `O=C(O)CCc1ccc2c(c1)c(CCc1ccccc1)cn2-c1ccc(CCO)cc1` [Example 209, 3-{1-[4-(2-hydroxyethyl)phenyl]-3-(2-phenylethyl)-1H-indol-5-yl}propanoic acid], the IC50 came to 244 nM.

For the compound `CS(=O)(=O)NC(=O)CCc1ccc2c(c1)c(CCc1ccccc1)cn2-c1ccc(Oc2ccccc2)cc1` [Example 331, N-(methylsulfonyl)-3-[1-(4-phenoxyphenyl)-3-(2-phenylethyl)-1H-indol-5-yl]propanamide], the IC50 was > 3000 nM. For `O=C(O)CCc1ccc2c(c1)c(CCc1ccccc1)cn2-c1ccc(OCCCc2cccnc2)cc1` [Example 258, 3-{3-(2-phenylethyl)-1-[4-(3-pyridin-3-ylpropoxy)phenyl]-1H-indol-5-yl}propanoic acid hydrochloride], the IC50 came to 2 nM.
